Measurements taken from patent US20260008793A1, “IONIZABLE CATIONIC LIPIDS INCORPORATING SILICON” (ALDEXCHEM KFT., priority 2022, published 2026).

What was measured:
[1] = LNP size, PDI and zeta potential by Dynamic Light Scattering (Method A); format: physicochemical; details: LNP formulated by Method A; for Zeta potential (mV): 1xPBS pH 7.4; for PDI / Size (nm): DLS; for Size (nm): Luciferase-mRNA loaded
Procedure, shortened: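 Dynamic light scattering gave particle size, PDI and zeta potential of the LNPs. These were made by microfluidic mixing, 3:1 aqueous to ethanol, of mRNA in 10 mM citrate pH 4.0 with a lipid master mix carrying the ionizable lipid, then dialysed through 100 kDa MWCO tubing.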

[2] = system: HeLa cells; test: Transfection efficiency with Luciferase-mRNA, Nano-Glo assay (Method A); format: cell-based; details: 100 ng Luciferase (SecNLuc) mRNA, 24 h, luminescence; note: unit not given here
Procedure, shortened: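 Luminescence of secreted NanoLuc in culture medium, read ~3 min after Nano-Glo reagent, reports transfection. HeLa cells grown to ~80% confluence got 100/50/10 ng mRNA per well as LNPs for 24 h, with a parallel resazurin toxicity readout.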

Row | SMILES | Zeta potential (mV) [1] [mV] | PDI [1] | Size (nm) [1] [nm] | Transfection* (Method A = 100 ng mRNA) [2]
1 | CCCCCCCC[Si](C)(C)OC(CCCCCCC)OCCCCCCN(CCCCO)CCCCCCOC(CCCCCCC)O[Si](C)(C)CCCCCCCC (centres unmarked) [Example 102, 5-(6-((1-((dimethyl(octyl)silyl)oxy)octyl)oxy)hexyl)-13-heptyl-15,15-dimethyl-12,14-dioxa-5-aza-15-silatricosan-1-ol] | −3.4 | 0.06 | 212.9 | 129513
2 | CCCCCCCCCCSC(CCCC)C(=O)OCCCCCCN(CCCCO)CCCCCCOC(CCCCCCC)O[Si](C)(C)OCCCCCCCC (centres unmarked) [Example 169, 15-heptyl-7-(4-hydroxybutyl)-17,17-dimethyl-14,16,18-trioxa-7-aza-17-silahexacosyl 2-(decylthio)hexanoate] | −13.9 | 0.09 | 159.7 | 1379853
3 | CCCCCCCCCOC(CCCCCCC)O[Si](C)(C)OCCCCCCN(CCCCO)CCCCCCOC(=O)C(CCCCCC)CCCCCCCC (centres unmarked) [Example 141, 17-heptyl-7-(4-hydroxybutyl)-15,15-dimethyl-14,16,18-trioxa-7-aza-15-silaheptacosyl 2-hexyldecanoate] | −10.6 | 0.11 | 129.5 | 4651434
4 | CCCCCCCCOC(CCCCCC)O[Si](C)(C)OCCCCCCN(CCCCO)CCCCCCOC(=O)C(CCCCCC)CCCCCCCC (centres unmarked) [Example 142, 17-hexyl-7-(4-hydroxybutyl)-15,15-dimethyl-14,16,18-trioxa-7-aza-15-silahexacosyl 2-hexyldecanoate] | −12.8 | 0.06 | 125.1 | 5491290
5 | CCCCCCCCOC(CCCCCCC)O[Si](C)(C)OCCCCCCN(CCCCO)CCC[C@@H](C)C1CCC2C3CCC4C[C@H](OC)CC[C@]4(C)C3CC[C@@]21C (stereo partly drawn) [Example 225, 15-heptyl-5-((4R)-4-((3R,10S,13R)-3-methoxy-10,13-dimethylhexadecahydro-1H-cyclopenta[a]phenanthren-17-yl)pentyl)-13,13-dimethyl-12,14,16-trioxa-5-aza-13-silatetracosan-1-ol] | −13.58 | 0.04 | 117.9 | 503272
6 | CCCCCCCCC(SCCCCC)C(=O)OCCCCCCN(CCCCO)CCCCCCOC(CCCCCCC)O[Si](C)(C)O[Si](C)(C)CCCCCCCC (centres unmarked) [Example 182, 15-heptyl-7-(4-hydroxybutyl)-17,17,19,19-tetramethyl-14,16,18-trioxa-7-aza-17,19-disilaheptacosyl 2-(pentylthio)decanoate] | −12.56 | 0.045 | 136.8 | 227368
7 | CC/C=C\C/C=C\C/C=C\C/C=C\C/C=C\CCCCN(CCCCO)CCCCCC[Si](C)(C)OC(CCCCCCC)OCCCCCCCC (centres unmarked) [Example 204, 14-heptyl-5-((5Z,8Z,11Z,14Z,17Z)-icosa-5,8,11,14,17-pentaen-1-yl)-12,12-dimethyl-13,15-dioxa-5-aza-12-silatricosan-1-ol] | −10.63 | 0.056 | 140 | 282773
8 | CCCCCCCCOC(CCCCCCC)O[Si](C)(C)OCCCCCCN(CCCCO)CCCCCCOC(=O)C(CCCCCC)CCCCCCCC (centres unmarked) [Example 139, 17-heptyl-7-(4-hydroxybutyl)-15,15-dimethyl-14,16,18-trioxa-7-aza-15-silahexacosyl 2-hexyldecanoate] | −12.3 | 0.14 | 137.4 | 11829351
9 | CCCCCCCCCCSC(CCCC)C(=O)OCCCCCCN(CCCCO)CCCCCC(OCCCCCCCC)O[Si](C)(C)CCCCCCCC (centres unmarked) [Example 166, 6-((6-((dimethyl(octyl)silyl)oxy)-6-(octyloxy)hexyl)(4-hydroxybutyl)amino)hexyl 2-(decylthio)hexanoate] | −13.01 | 0.185 | 223.6 | 791474
10 | CCCCCCCCOC(CCCCCCC)O[Si](C)(C)CCCCCCN(CCCCO)CCCCCCOC(=O)C(CCCCCCCC)SCCCCC (centres unmarked) [Example 187, 16-heptyl-7-(4-hydroxybutyl)-14,14-dimethyl-15,17-dioxa-7-aza-14-silapentacosyl 2-(pentylthio)decanoate] | −14.47 | 0.255 | 334.9 | 838984
11 | CCCCCCCCCC(OCCCCCCN(CCCCO)CCCCCCOC(CCCCCCCCC)O[Si](C)(C)CCCCCC)O[Si](C)(C)CCCCCC (centres unmarked) [Example 104, 5-(6-((1-((hexyldimethylsilyl)oxy)decyl)oxy)hexyl)-15,15-dimethyl-13-nonyl-12,14-dioxa-5-aza-15-silahenicosan-1-ol] | −13.26 | 0.043 | 184.4 | 27631.5
12 | CCCCCCCCCCSC(CCCC)C(=O)OCCCCCCN(CCCCO)CCCCCC(OCCCCCCCC)O[Si](C)(C)O[Si](C)(C)CCCCCCCC (centres unmarked) [Example 170, 6-((4-hydroxybutyl)(6-(octyloxy)-6-((1,1,3,3-tetramethyl-3-octyldisiloxaneyl)oxy)hexyl)amino)hexyl 2-(decylthio)hexanoate] | −14.68 | 0.210 | 207.5 | 711747
13 | CCCCCCCCOC(CCCCCN(CCCCO)CCCCCCOC(=O)C(CCCCCC)CCCCCCCC)O[Si](C)(C)O[Si](C)(C)OCCCCCCCC (centres unmarked) [Example 134, 6-((4-hydroxybutyl)(6-(octyloxy)-6-((1,1,3,3-tetramethyl-3-(octyloxy)disiloxaneyl)oxy)hexyl)amino)hexyl 2-hexyldecanoate] | −11.99 | 0.006 | 145.8 | 398528
14 | CCCCCCCCOC(CCCCCN(CCO)CCCCCCCC(=O)OC(CCCCCCCC)CCCCCCCC)O[Si](C)(C)OCCCCCCCC (centres unmarked) [Example 190, heptadecan-9-yl 18-(2-hydroxyethyl)-10,10-dimethyl-12-(octyloxy)-9,11-dioxa-18-aza-10-silahexacosan-26-oate] | −11.40 | 0.075 | 208.2 | 15121
15 | CC/C=C\C/C=C\C/C=C\C/C=C\C/C=C\CCCCN(CCCCO)CCCCCCOC(CCCCCCC)O[Si](C)(C)O[Si](C)(C)OCCCCCCCC (centres unmarked) [Example 201, 13-heptyl-5-((5Z,8Z,11Z,14Z,17Z)-icosa-5,8,11,14,17-pentaen-1-yl)-15,15,17,17-tetramethyl-12,14,16,18-tetraoxa-5-aza-15,17-disilahexacosan-1-ol] | −13.1 | 0.055 | 176.2 | 25071
16 | CCCCCCCC[Si](C)(C)O[Si](C)(C)OC(CCCCCCC)OCCCCCCN(CCCCO)CCCCCCOC(CCCCCCC)O[Si](C)(C)O[Si](C)(C)CCCCCCCC (centres unmarked) [Example 108, 13-heptyl-15,15,17,17-tetramethyl-5-(6-((1-((1,1,3,3-tetramethyl-3-octyldisiloxaneyl)oxy)octyl)oxy)hexyl)-12,14,16-trioxa-5-aza-15,17-disilapentacosan-1-ol] | −14.24 | 0.211 | 198.5 | 7926
17 | CCCCCCCCO[Si](C)(C)OC(CCCCCCC)OCCCCCCN(CCCCCCOC(CCCCCCC)O[Si](C)(C)OCCCCCCCC)CCC1CCCN1C (centres unmarked) [Example 121, 8-heptyl-N-(8-heptyl-10,10-dimethyl-7,9,11-trioxa-10-silanonadecyl)-10,10-dimethyl-N-(2-(1-methylpyrrolidin-2-yl)ethyl)-7,9,11-trioxa-10-silanonadecan-1-amine] | −11.47 | 0.012 | 179.2 | 80788.5
18 | CCCCCCCCOC(CCCCCN(CCCCO)CCCCCC(OCCCCCCCC)O[Si](C)(C)O[Si](C)(C)CCCCCCCC)O[Si](C)(C)O[Si](C)(C)CCCCCCCC (centres unmarked) [Example 107, 4-(bis(6-(octyloxy)-6-((1,1,3,3-tetramethyl-3-octyldisiloxaneyl)oxy)hexyl)amino)butan-1-ol] | −11.69 | 0.186 | 152.1 | 3677.5
19 | CCCCCCCCCCCOC(=O)CCCCCN(CCO)CCCCCCCCCOC(CCCCCCC)O[Si](C)(C)CCCCCC (centres unmarked) [Example 209, undecyl 9-heptyl-20-(2-hydroxyethyl)-7,7-dimethyl-8,10-dioxa-20-aza-7-silahexacosan-26-oate] | −12.11 | 0.018 | 161.6 | 2049133
20 | CCCCCCCCCCSC(CCCC)C(=O)OCCCCCCN(CCCCO)CCCCCC(OCCCCCCCC)O[Si](C)(C)O[Si](C)(C)OCCCCCCCC (centres unmarked) [Example 172, 6-((4-hydroxybutyl)(6-(octyloxy)-6-((1,1,3,3-tetramethyl-3-(octyloxy)disiloxaneyl)oxy)hexyl)amino)hexyl 2-(decylthio)hexanoate] | −9.92 | 0.07 | 151.7 | 301328
